# The NIST ThermoML archive (doi:10.1016/j.fluid.2019.02.006)
# Numbers after ± are expanded uncertainties.
# Key:
# [1] = 298.15 K; 100 kPa; Liquid; Vibrating tube method
# [2] = xn = mol fraction of the nth substance listed; conditions: 298.15 K, 100 kPa, Liquid, Vibrating tube method
compound,measurement,setting,value
C1CCCCC1 [cyclohexane],mass density,[1],773.6 ± 1 kg/m3
C1CCCCC1 [cyclohexane] + CCCCCCCCCCO,mass density,[2]; x1 = 1,773.6 ± 1 kg/m3
C1CCCCC1 [cyclohexane] + CCCCCCCCCO,mass density,[2]; x1 = 1,773.6 ± 1 kg/m3
C1CCCCC1 [cyclohexane] + CCCCCCCCO,mass density,[2]; x1 = 1,773.6 ± 1 kg/m3
C1CCCCC1 [cyclohexane] + CCCCCCCO,mass density,[2]; x1 = 1,773.6 ± 1 kg/m3
C1CCCCC1 [cyclohexane] + CCCCCCO,mass density,[2]; x1 = 1,773.6 ± 1 kg/m3
C1CCCCC1 [cyclohexane] + CCCCCO,mass density,[2]; x1 = 1,773.6 ± 1 kg/m3
CCCCCCCCCCO [decan-1-ol],mass density,[1],826.1 ± 1 kg/m3
CCCCCCCCCCO [decan-1-ol] + C1CCCCC1,mass density,[2]; x2 = 0,826.1 ± 1 kg/m3
same,mass density,[2]; x2 = 0.0819,823.7 ± 1 kg/m3
same,mass density,[2]; x2 = 0.1596,820.8 ± 1 kg/m3
same,mass density,[2]; x2 = 0.2401,817.6 ± 1 kg/m3
same,mass density,[2]; x2 = 0.3482,812.9 ± 1 kg/m3
same,mass density,[2]; x2 = 0.4395,808.7 ± 1 kg/m3
same,mass density,[2]; x2 = 0.5598,802.6 ± 1 kg/m3
same,mass density,[2]; x2 = 0.6498,797.6 ± 1 kg/m3
same,mass density,[2]; x2 = 0.7404,792.3 ± 1 kg/m3
same,mass density,[2]; x2 = 0.849,785.2 ± 1 kg/m3
same,mass density,[2]; x2 = 0.9394,778.6 ± 1 kg/m3
CCCCCCCO [heptan-1-ol],mass density,[1],818.7 ± 1 kg/m3
CCCCCCCO [heptan-1-ol] + C1CCCCC1,mass density,[2]; x2 = 0,818.7 ± 1 kg/m3
same,mass density,[2]; x2 = 0.0805,815.5 ± 1 kg/m3
same,mass density,[2]; x2 = 0.1601,812.1 ± 1 kg/m3
same,mass density,[2]; x2 = 0.2392,808.7 ± 1 kg/m3
same,mass density,[2]; x2 = 0.3503,803.7 ± 1 kg/m3
same,mass density,[2]; x2 = 0.4391,799.7 ± 1 kg/m3
same,mass density,[2]; x2 = 0.5604,794 ± 1 kg/m3
same,mass density,[2]; x2 = 0.6502,789.8 ± 1 kg/m3
same,mass density,[2]; x2 = 0.7396,785.7 ± 1 kg/m3
same,mass density,[2]; x2 = 0.8497,780.5 ± 1 kg/m3
same,mass density,[2]; x2 = 0.94,776.4 ± 1 kg/m3
CCCCCCO [hexan-1-ol],mass density,[1],815.1 ± 1 kg/m3
CCCCCCO [hexan-1-ol] + C1CCCCC1,mass density,[2]; x2 = 0,815.1 ± 1 kg/m3
same,mass density,[2]; x2 = 0.0811,811.6 ± 1 kg/m3
same,mass density,[2]; x2 = 0.1597,808.2 ± 1 kg/m3
same,mass density,[2]; x2 = 0.2415,804.6 ± 1 kg/m3
same,mass density,[2]; x2 = 0.3498,799.8 ± 1 kg/m3
same,mass density,[2]; x2 = 0.4412,795.8 ± 1 kg/m3
same,mass density,[2]; x2 = 0.5588,790.7 ± 1 kg/m3
same,mass density,[2]; x2 = 0.65,786.8 ± 1 kg/m3
same,mass density,[2]; x2 = 0.7404,783.2 ± 1 kg/m3
same,mass density,[2]; x2 = 0.8499,778.8 ± 1 kg/m3
same,mass density,[2]; x2 = 0.9398,775.6 ± 1 kg/m3
CCCCCCCCCO [nonan-1-ol],mass density,[1],824 ± 1 kg/m3
CCCCCCCCCO [nonan-1-ol] + C1CCCCC1,mass density,[2]; x2 = 0,824 ± 1 kg/m3
same,mass density,[2]; x2 = 0.0817,821.1 ± 1 kg/m3
same,mass density,[2]; x2 = 0.1605,818 ± 1 kg/m3
same,mass density,[2]; x2 = 0.2409,814.7 ± 1 kg/m3
same,mass density,[2]; x2 = 0.3496,810 ± 1 kg/m3
same,mass density,[2]; x2 = 0.4399,805.8 ± 1 kg/m3
same,mass density,[2]; x2 = 0.5606,799.8 ± 1 kg/m3
same,mass density,[2]; x2 = 0.6497,795.1 ± 1 kg/m3
same,mass density,[2]; x2 = 0.7406,790 ± 1 kg/m3
same,mass density,[2]; x2 = 0.8497,783.6 ± 1 kg/m3
same,mass density,[2]; x2 = 0.9403,777.8 ± 1 kg/m3
CCCCCCCCO [octan-1-ol],mass density,[1],821.4 ± 1 kg/m3
CCCCCCCCO [octan-1-ol] + C1CCCCC1,mass density,[2]; x2 = 0,821.4 ± 1 kg/m3
same,mass density,[2]; x2 = 0.0815,818.3 ± 1 kg/m3
same,mass density,[2]; x2 = 0.1602,815.1 ± 1 kg/m3
same,mass density,[2]; x2 = 0.2408,811.7 ± 1 kg/m3
same,mass density,[2]; x2 = 0.3494,806.9 ± 1 kg/m3
same,mass density,[2]; x2 = 0.4398,802.7 ± 1 kg/m3
same,mass density,[2]; x2 = 0.5605,796.8 ± 1 kg/m3
same,mass density,[2]; x2 = 0.6496,792.4 ± 1 kg/m3
same,mass density,[2]; x2 = 0.7404,787.8 ± 1 kg/m3
same,mass density,[2]; x2 = 0.8495,782 ± 1 kg/m3
same,mass density,[2]; x2 = 0.94,777 ± 1 kg/m3
CCCCCO [pentan-1-ol],mass density,[1],810.8 ± 1 kg/m3
CCCCCO [pentan-1-ol] + C1CCCCC1,mass density,[2]; x2 = 0,810.8 ± 1 kg/m3
same,mass density,[2]; x2 = 0.081,807.1 ± 1 kg/m3
same,mass density,[2]; x2 = 0.1607,803.6 ± 1 kg/m3
same,mass density,[2]; x2 = 0.2403,800.1 ± 1 kg/m3
same,mass density,[2]; x2 = 0.3487,795.4 ± 1 kg/m3
same,mass density,[2]; x2 = 0.4396,791.7 ± 1 kg/m3
same,mass density,[2]; x2 = 0.5597,787 ± 1 kg/m3
same,mass density,[2]; x2 = 0.6498,783.7 ± 1 kg/m3
same,mass density,[2]; x2 = 0.7408,780.6 ± 1 kg/m3
same,mass density,[2]; x2 = 0.8499,777.1 ± 1 kg/m3
same,mass density,[2]; x2 = 0.9406,774.8 ± 1 kg/m3
